From PubChem BioAssay AID248 (DTP/NCI, 2004)
Values joined by “and” are separate entries in the source; they are usually repeats but may differ in a detail not shown here. Equal values may be shown once. Inconclusive results and toxic doses are left out.

System: L1210 leukemia ip in BDF1 mice, survival T/C
Test: NCI In Vivo Anticancer Drug Screen. Data for tumor model L1210 Leukemia (intraperitoneal) in B6D2F1 (BDF1) mice
Settings: endpoint: mean survival time, higher = longer survival
Outline: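 Tumor cells were implanted, animals were treated, and survival was followed. The result divides the treated measurement by the vehicle-control measurement.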

[1] = dose: 100.0 mg/kg/injection, schedule: Q01DX001 (ip), vehicle: saline

Structure (SMILES): Nc1nc(SCc2ccccc2)c2[nH]cnc2n1
- T/C (dose: 4.0 mg/kg/injection, schedule: Q01DX Z (ip), vehicle: carboxymethylcellulose (CMC)): 124 % of control
- T/C (dose: 5.0 mg/kg/injection, schedule: Q03DX Z (ip), vehicle: carboxymethylcellulose (CMC)): 92 % of control
- T/C (dose: 8.0 mg/kg/injection, schedule: Q01DX010 (ip), vehicle: saline): 100 % of control
- T/C (dose: 8.0 mg/kg/injection, schedule: Q01DX Z (oral), vehicle: carboxymethylcellulose (CMC)): 158 % of control
- T/C (dose: 10.0 mg/kg/injection, schedule: Q01DX Z (ip), vehicle: carboxymethylcellulose (CMC)): 152 % of control
- T/C (dose: 10.0 mg/kg/injection, schedule: Q03DX Z (ip), vehicle: carboxymethylcellulose (CMC)): 116 % of control
- T/C (dose: 15.0 mg/kg/injection, schedule: Q03DX Z (ip), vehicle: carboxymethylcellulose (CMC)): 124 % of control
- T/C (dose: 20.0 mg/kg/injection, schedule: Q01DX001 (ip), vehicle: carboxymethylcellulose (CMC)): 151 % of control
- T/C (dose: 20.0 mg/kg/injection, schedule: Q03DX Z (ip), vehicle: carboxymethylcellulose (CMC)): 216 % of control
- T/C (dose: 41.0 mg/kg/injection, schedule: Q01DX001 (ip), vehicle: carboxymethylcellulose (CMC)): 163 % of control
- T/C (dose: 41.0 mg/kg/injection, schedule: Q03DX Z (ip), vehicle: carboxymethylcellulose (CMC)): 158 % of control
- T/C (dose: 41.0 mg/kg/injection, schedule: Q07DX Z (ip), vehicle: carboxymethylcellulose (CMC)): 165 % of control
- T/C (dose: 60.0 mg/kg/injection, schedule: Q01DX Z (ip), vehicle: carboxymethylcellulose (CMC)): 118 % of control
- T/C (dose: 62.5 mg/kg/injection, schedule: Q01DX010 (ip), vehicle: saline): 108 % of control
- T/C (dose: 64.0 mg/kg/injection, schedule: Q01DX Z (oral), vehicle: carboxymethylcellulose (CMC)): 124 % of control
- T/C (dose: 82.0 mg/kg/injection, schedule: Q01DX001 (ip), vehicle: carboxymethylcellulose (CMC)): 157 % of control
- T/C (dose: 82.0 mg/kg/injection, schedule: Q07DX Z (ip), vehicle: carboxymethylcellulose (CMC)): 168 % of control
- T/C (dose: 86.0 mg/kg/injection, schedule: Q01DX001 (ip), vehicle: carboxymethylcellulose (CMC)): 163 % of control
- T/C (dose: 125.0 mg/kg/injection, schedule: Q01DX010 (ip), vehicle: saline): 103 % of control
- T/C (dose: 129.0 mg/kg/injection, schedule: Q01DX001 (ip), vehicle: carboxymethylcellulose (CMC)): 160 % of control
- T/C (dose: 195.0 mg/kg/injection, schedule: Q01DX001 (ip), vehicle: carboxymethylcellulose (CMC)): 168 % of control and 181 % of control
- T/C (dose: 292.0 mg/kg/injection, schedule: Q03DX Z (ip), vehicle: carboxymethylcellulose (CMC)): 101 % of control
- T/C (dose: 292.0 mg/kg/injection, schedule: Q07DX Z (ip), vehicle: carboxymethylcellulose (CMC)): 114 % of control

Structure (SMILES): BrCc1cc(CBr)c(CBr)cc1CBr
- T/C (dose: 12.5 mg/kg/injection, schedule: Q01DX009 (ip), vehicle: acetone): 108 % of control
- T/C (dose: 12.5 mg/kg/injection, schedule: Q04DX003 (ip), vehicle: saline): 97 % of control
- T/C (dose: 25.0 mg/kg/injection, schedule: Q04DX003 (ip), vehicle: saline): 98 % of control and 114 % of control
- T/C (dose: 50.0 mg/kg/injection, schedule: Q04DX003 (ip), vehicle: saline): 95 % of control

Structure (SMILES): CCOP(OCC)N1CCCCCC1=O
- T/C (dose: 100.0 mg/kg/injection, schedule: Q04DX003 (ip), vehicle: saline with Tween-80): 100 % of control
- T/C (dose: 200.0 mg/kg/injection, schedule: Q04DX003 (ip), vehicle: saline with Tween-80): 95 % of control
- T/C (dose: 400.0 mg/kg/injection, schedule: Q04DX003 (ip), vehicle: saline with Tween-80): 89 % of control

Structure (SMILES): CNc1ncnc2nc(Cl)[nH]c12
- T/C [1]: 108 % of control

Structure (SMILES): CCCCCOC(=O)C#CC(=O)OCCCCC
- T/C (dose: 1.56 mg/kg/injection, schedule: Q01DX009 (ip), vehicle: carboxymethylcellulose (CMC)): 92 % of control and 101 % of control
- T/C (dose: 3.13 mg/kg/injection, schedule: Q01DX009 (ip), vehicle: carboxymethylcellulose (CMC)): 108 % of control and 89 % of control
- T/C (dose: 12.5 mg/kg/injection, schedule: Q01DX009 (ip), vehicle: carboxymethylcellulose (CMC)): 89 % of control
- T/C (dose: 12.5 mg/kg/injection, schedule: Q04DX003 (ip), vehicle: carboxymethylcellulose (CMC)): 98 % of control
- T/C (dose: 25.0 mg/kg/injection, schedule: Q04DX003 (ip), vehicle: carboxymethylcellulose (CMC)): 98 % of control
- T/C (dose: 50.0 mg/kg/injection, schedule: Q01DX009 (ip), vehicle: carboxymethylcellulose (CMC)): 89 % of control
- T/C (dose: 50.0 mg/kg/injection, schedule: Q04DX003 (ip), vehicle: carboxymethylcellulose (CMC)): 96 % of control and 100 % of control
- T/C (dose: 100.0 mg/kg/injection, schedule: Q04DX002 (ip), vehicle: carboxymethylcellulose (CMC)): 97 % of control and 106 % of control
- T/C (dose: 200.0 mg/kg/injection, schedule: Q04DX002 (ip), vehicle: carboxymethylcellulose (CMC)): 95 % of control and 97 % of control

Structure (SMILES): NNC(=O)c1ccc(Cl)cc1Nc1ccc(Cl)cc1
- T/C (dose: 25.0 mg/kg/injection, schedule: Q01DX009 (ip), vehicle: Klucel (hydroxypropylcellulose) (HPC)): 93 % of control
- T/C (dose: 50.0 mg/kg/injection, schedule: Q01DX009 (ip), vehicle: Klucel (hydroxypropylcellulose) (HPC)): 95 % of control
- T/C (dose: 100.0 mg/kg/injection, schedule: Q01DX001 (ip), vehicle: Klucel (hydroxypropylcellulose) (HPC)): 97 % of control
- T/C (dose: 100.0 mg/kg/injection, schedule: Q01DX009 (ip), vehicle: Klucel (hydroxypropylcellulose) (HPC)): 91 % of control

Structure (SMILES): CCOC(=O)c1c[nH]c2nc(N)ccc2c1=O
- T/C (dose: 50.0 mg/kg/injection, schedule: Q01DX001 (ip), vehicle: saline): 104 % of control
- T/C [1]: 106 % of control
- T/C (dose: 200.0 mg/kg/injection, schedule: Q01DX001 (ip), vehicle: saline): 106 % of control
- T/C (dose: 400.0 mg/kg/injection, schedule: Q01DX001 (ip), vehicle: saline): 101 % of control
